Columns and labels:
[1] = target: BTK (Homo sapiens (Human), UniProt Q06187); experiment: BTK degradation in OCI-LY10 cells (Total-BTK HTRF kit); type: cell-based; details: 24 (or 6) h incubation; for DC50: DC50 = concentration when degradation rate reaches 50%, read-out: OCI-LY10 cell BTK degradation DC50; for Dmax: OCI-Ly10, OCI-LY10 cells
How it was run: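 OCI-LY10 cells seeded overnight, then treated with compound at 100 nM-0.098 nM in duplicate for 24 (or 6) h. Lysates probed by Total-BTK HTRF (d2/Eu cryptate antibodies, overnight, room temperature), read at 665/620 nm; DC50 and Dmax from four-parameter dose-response fits.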

[2] = test system: TMD8-BTK(C481S) cells; experiment: Inhibitory activity on TMD8-BTK(C481S) cell proliferation (CCK-8); type: cell-based; details: 72 h, 72 h incubation
How it was run: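 Cells seeded at 8×10^4 cells/mL, incubated overnight, then treated in duplicate with compounds at 5000 nM-0.31 nM for 72 h. Viability by CCK-8 (4 h, absorbance 450 nm); IC50 from four-parameter dose-response fits.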

[3] = test system: TMD-8 xenograft tumors; experiment: In vivo drug efficacy, TMD-8 mouse subcutaneous xenograft tumors; parameters: species or system NOD-SCID mice; details: 30 mg/kg, qd, i.g.
Method: TMD-8 mouse subcutaneous xenograft tumors: TMD-8 (WT) cells at a concentration of 1×10^8/mL were inoculated under aseptic conditions into the right side armpit of NOD-SCID mice at 0.1 mL/mouse. After subcutaneous grafting, the animals were divided into groups with 6 animals in each group when the tumor volume reached about 188 mm^3 (or 200 mm^3):
model group: vehicle, 6 mice; compound administration groups: 30 mg/kg, qd, i.g., 6 mice.
The vehicle or the test compound was intragastrically given at a volume of 4 mL/kg, once daily for 16 consecutive days. The tumor volume was measured 2-3 times a week, and meanwhile, the mice were weighed and the data were recorded; the general behaviors of the animals were observed every day. After all dosing was complete, the animals were sacrificed on day 17, and the tumors were removed and weighed.
The tumor volume and the tumor growth inhibition were calculated using the following formulae:
Tumor volume (TV)=(Length×Width^2)/2.
Tumor growth inhibition (TGI)=(1−tumor weight of treatment group/tumor weight of model group)×100%.

[4] = In vitro liver microsomal stability, mouse; details: 0.5 mg/mL microsomes, NADPH, 37° C., 1 h
Method: (§1) Liver microsome incubation samples were prepared by mixing a PBS buffer (pH 7.4), a liver microsome solution (0.5 mg/mL), a test compound, and an NADPH+MgCl2 solution and incubated at 37° C. and 300 rpm for 1 h. Zero-hour samples were prepared by mixing a PBS buffer (pH 7.4), a liver microsome solution (0.5 mg/mL), and a test compound. An acetonitrile solution containing an internal standard was added to the samples, and supernatants were prepared by protein precipitation, diluted, and then assayed by LC/MS/MS.

[5] = test system: OCI-LY10-BTK(C481S) cells; experiment: Inhibitory activity on OCI-LY10-BTK(C481S) cell proliferation (CCK-8); type: cell-based; details: 72 h incubation, IC50 per method, unit inferred
Method: OCI-LY10(C481S) cells in the logarithmic growth phase were collected and added to a centrifuge tube, adjusted to a cell density of 5×10^4 cells/mL, and seeded in a 96-well plate (100 μL/well). Meanwhile, compounds were added using a nanoliter pipettor such that the final concentrations of the compounds were 5000 nM-0.31 nM; the addition was performed in duplicate, and meanwhile, a control was set. After another 72 h of incubation in the cell incubator, the detection reagent CCK-8 (manufacturer: Dojindo Laboratories, Beijing; 10 μL/well) was added. After 3 h of incubation in the cell incubator, absorbance values were detected at 450 nm using a PerkinElmer Envision microplate reader, the four-parameter analysis was performed, the dose-response curves were fit, and IC50 was calculated.

[6] = In vitro liver microsomal stability, human; type: in vitro ADME; details: 0.5 mg/mL microsomes, NADPH, 37° C., 1 h
Method: as §1

Chain of BTK (Q06187 whole entry): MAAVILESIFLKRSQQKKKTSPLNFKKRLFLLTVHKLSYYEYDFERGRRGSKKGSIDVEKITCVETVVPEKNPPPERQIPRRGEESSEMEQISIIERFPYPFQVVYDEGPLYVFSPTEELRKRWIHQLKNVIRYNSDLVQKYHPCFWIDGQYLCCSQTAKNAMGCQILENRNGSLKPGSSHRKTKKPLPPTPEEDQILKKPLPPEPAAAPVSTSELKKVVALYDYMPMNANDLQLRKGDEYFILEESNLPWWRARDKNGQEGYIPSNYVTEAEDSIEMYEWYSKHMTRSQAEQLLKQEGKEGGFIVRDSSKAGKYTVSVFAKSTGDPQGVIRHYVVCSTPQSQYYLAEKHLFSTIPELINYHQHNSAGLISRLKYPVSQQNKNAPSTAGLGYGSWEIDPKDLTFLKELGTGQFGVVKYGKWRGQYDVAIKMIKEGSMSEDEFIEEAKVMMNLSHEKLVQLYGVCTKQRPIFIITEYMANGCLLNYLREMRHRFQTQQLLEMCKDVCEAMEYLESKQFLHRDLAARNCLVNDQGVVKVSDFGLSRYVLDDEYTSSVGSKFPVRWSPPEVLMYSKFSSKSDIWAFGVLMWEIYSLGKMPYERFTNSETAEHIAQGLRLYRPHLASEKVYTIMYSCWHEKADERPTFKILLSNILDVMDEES

SMILES	DC50 ([1]; OCI-LY10 cells)	Dmax ([1]; maximum degradation rate)	IC50 [2]	TGI d 17 ([3]; 16 days, tumor weight on day 17)	TV on d 0 Mean ± SD ([3]; day 0 (baseline at grouping))	TV on d 12 Mean ± SD ([3]; day 12)	TV on d 15 Mean ± SD ([3]; day 15)	Mouse liver microsome Residuals at 60 min [4]	IC50 ([5]; 72 h)	Human liver microsome Residuals at 60 min [6]	BTK degradation in OCI-LY10 cells Dmax ([1]; OCI-LY10 cells, maximum degradation rate)	IC50 [5]
CN1CCN([C@@H]2CCCN(c3cnc(C(N)=O)c(Nc4ccc(C5CCN(C6CN(c7ccc8c(C9CCC(=O)NC9=O)noc8c7)C6)CC5)cc4)n3)C2)C1=O (stereo partly shown) [Compound 10]	< 98 pM	99%	2400 pM	97.5%	226 ± 29 mm^3	235 ± 57 mm^3	209 ± 60 mm^3	65.4%	–	–	–	–
CN1CCN([C@@H]2CCCN(c3cnc(C(N)=O)c(Nc4ccc(N5CCC(CN6CCc7ccc8c(C9CCC(=O)NC9=O)noc8c7CC6)CC5)cc4)n3)C2)C1=O (stereo partly shown) [Compound 27]	< 98 pM	97%	–	–	–	–	–	–	62 pM	56.0%	–	–
CN1CCN([C@@H]2CCCN(c3cnc(C(N)=O)c(Nc4ccc(C5CCC(N6Cc7ccc8c(C9CCC(=O)NC9=O)noc8c7C6)CC5)cc4)n3)C2)C1=O (stereo partly shown) [Compound 33]	–	–	–	–	–	–	–	71.0%	–	55.0%	>90%	370 pM
